Results reported in patent US20130230511A1, “BIOMARKERS FOR RESPONSE TO TYROSINE KINASE PATHWAY INHIBITORS IN CANCER” (BOARD OF REGENTS, THE UNIVERSITY OF TEXAS SYSTEM, priority 2012, published 2013).

Legend:
H23 cells = conditions: which harbor VEGFR (KDR) CNGs
HIF-1α = conditions: H23 cells (KDR CNG+), ELISA
Protocol: For HIF-1 expression analysis, the cells were serum-starved for 24 h and stimulated with 50 ng/mL VEGF-A (R&D Systems, MN, USA). Cells were incubated in normoxia and protein lysates were collected after 8 h. HIF-1α ELISA (R&D Systems, MN, USA) was performed according to the manufacturer's instructions.

NSCLC cell line H23 = experiment: MTS assay of in vitro resistance to cisplatin and carboplatin, with KDR siRNA knockdown; assay type: cell-based; conditions: for decrease in IC50 caused by knockdown of KDR: H23 cells, siKDR knockdown versus untransfected, P<0.05; for IC50: MTS assay, 72 h drug exposure
Protocol: Cisplatin and carboplatin sensitivity was determined by MTS (3-(4,5-dimethylthiazol-2-yl)-5-(3-carboxymethoxyphenyl)-2-(4-sulfophenyl)-2H-tetrazolium, inner salt) assay for each cell line and the concentration required for 50% growth inhibition (IC50) was determined.
NSCLC cells were transfected with siRNA targeting KDR and control siRNA (OriGene Technology, Md., USA) at a final concentration of 10 nM using Lipofectamine RNAiMAX (Invitrogen, CA, USA) according to the manufacturer's instructions. Medium was replaced after 24 h. To verify the knockdown efficiency, mRNA and protein of transfected cells were collected for real-time RT-PCR and Western blot analyses.
The assessment of in vitro resistance to cisplatin and carboplatin was determined by the MTS assay. NSCLC cell lines were seeded in octuplicate at a density of 2,000 per well in 96-well plates. The following day, cells were treated with cisplatin and carboplatin at various concentrations ranging from 0 to 120 μmol/L for cisplatin and 0 to 200 μmol/L for carboplatin. After 72 h of drug exposure, 20 μL of MTS solution was added per well. Cells were incubated for 1-4 hours at 37° C. and read at a wavelength of 490 nm.
To investigate the role of KDR CNG and VEGFR-2 overexpression in resistance to both cisplatin and carboplatin, siRNA was utilized to knockdown KDR expression in H23 and H461 NSCLC cell lines, which contain 6-9 KDR gene copies. […] To evaluate the effect of KDR overexpression on sensitivity to cisplatin and carboplatin, the expression of KDR was inhibited by transfecting H23 and H461 cells with control siRNA or siRNA targeting KDR and then treating the cells with increasing concentrations of the chemotherapy drugs. Cell viability was evaluated by MTS assay.

[1] = system: HIF-1α-regulated proteins (EZH2, Met, phosphorylated Met); experiment: Changes in HIF-1α-regulated proteins in VEGFR amplified cell lines; assay type: cell-based; conditions: H23 and Calu1 cells (VEGFR CNGs)
Protocol: Two VEGFR amplified cell lines, H23 and Calu1, were treated with the VEGFR pathway inhibitor bevacizumab and evaluated for changes in proteins regulated by HIF-1α.
In addition, two VEGFR amplified cell lines, H23 and Calu1, were treated with the VEGFR pathway inhibitor bevacizumab and changes in proteins regulated by HIF-1α were evaluated.

[2] = untransfected (non-transfected) H23 cells

Row | Compound | decrease in IC50 caused by knockdown of KDR (NSCLC cell line H23) [fold] | IC50 (NSCLC cell line H23; siKDR knockdown H23 cells) [µM] | IC50 (NSCLC cell line H23; [2]) [µM] | other results
1 | Cc1ccc(NC(=O)c2ccc(CN3CCN(C)CC3)cc2)cc1Nc1nccc(-c2cccnc2)n1 [imatinib] |  |  |  | cell migration (H23 cells): does not inhibit cellular migration; HIF-1α levels (HIF-1α): did not affect
2 | N.N.[Cl][Pt][Cl] [cisplatin] | 1.9 | 53 | 97.9 | 
3 | N.N.O=C([O-])C1(C(=O)[O-])CCC1.[Pt+2] [carboplatin] | 3.5 | 27.9 | 97 | 
4 | bevacizumab |  |  |  | EZH2 protein [1]: decreased; Met protein [1]: decreased; phosphorylated Met [1]: decreased
